Experiments:
Stability in solution = type: physicochemical; conditions: converted to compound VI-1B, mixture 7:3
Procedure: The compound of Formula I-16 (15 mg, 0.048 mmol) was dissolved in 1:1 ratio of ACN/DMSO (8 ml) in a scintillation vial (20 ml) to which triethylamine (40 μl, 0.29 mmol), Glutathione (44.2 mg, 0.144 mmol) and a magnetic stir bar were added. The reaction mixture was stirred at room temperature for about 3 hours. The solvent was evaporated from the reaction mixture to yield the compound of Formula I-48, which was purified by reversed phase HPLC using Ace 5u C18 column (150 mm×22 mm ID) with a solvent gradient of 10% to 70% H2O/Acetonitrile over 15 min, 70 to 100% Acetonitrile over 5 min, holding at 100% Acetonitrile for 4 min, at a flow rate of 14.5 ml/min. Diode array detector was used to monitor the purification process. Compound I-48 (10 mg) eluted as a pure compound at 8.255 min. Compound I-48: UV (Acetonitrile/H2O) λmax 235 (sh) nm; ESMS m/z 621.0 (M+H)^+. […] Compound VI-1B: UV (Acetonitrile/H2O) λmax 235 (sh) nm; ESMS, m/z 585.2 (M+H)^+.

WM = conditions: single agent, phase I trials; cited from earlier work
[1] = tested on: caspase-like (C-L) activity of the 20S proteasome; experiment: 20S proteasome caspase-like activity in treated cells; type: cell-based; conditions: each agent 10 nM, 4 hours
[2] = tested on: p65 phosphorylation and p50NF-κB expression; experiment: Fibronectin-induced NF-κB activity, western blotting of nuclear extracts; conditions: each agent 10 nM, 4 hours
Excerpt: Nuclear extracts were subjected to western blotting using anti-p-p65, -p50, and -nucleolin antibodies.

BCWM.1 cells [3] = experiment: IL-6-induced proliferation, thymidine uptake; type: cell-based; conditions: salinosporamide A 2.5-20 nM, bortezomib 10 nM, IL-6 25 ng/mL
Procedure: Proliferation was assessed by thymidine uptake assay.
(§1) The effect of the two proteasome inhibitors on cytotoxicity of WM cells in the presence of IL-6 was also investigated. […] Whether the two proteasome inhibitors, used as single agent or in combination, could also target non-malignant hematopoietic cells was investigated.

BCWM.1 cells [4] = type: cell-based; conditions: for caspases-3, 8 and 9 cleavage: each agent 10 nM
Excerpt: To further dissect whether apoptosis is mediated through the intrinsic or extrinsic pathways, the effect of salinosporamide A, bortezomib and the combination on caspases-3, 8 and 9 was investigated.

[5] = tested on: chymotrypsin-like (CT-L) activity of the 20S proteasome; experiment: 20S proteasome chymotrypsin-like activity in treated cells; conditions: 10 nM, 4 hours
Akt = experiment: In vitro Akt kinase assay; type: cell-based; conditions: each agent 10 nM
Excerpt: FIG. 4B is a picture showing In vitro Akt kinase assay. […] Whole cell lysates were immunoprecipitated with anti-Akt antibody. Then the immunoprecipitate was washed and subjected to in vitro kinase assay according to manufacturer's protocol. Western blotting used anti-p-GSK3α/β and anti-Akt antibodies.

[6] = tested on: Akt and STAT-3 phosphorylation; experiment: IL-6-triggered Akt and STAT-3 phosphorylation, western blotting; type: cell-based; conditions: each agent 10 nM, 8 hours; IL-6 25 ng/mL 10 minutes
Procedure: Cells were then stimulated with IL-6 (25 ng/mL) for 10 minutes.
as §1

[7] = tested on: BCWM.1 cells homing to the bone marrow; type: in vivo, BALB/c mice; conditions: single agents, cells pretreated; data not shown
Procedure: FIG. 6D is a graph showing in vivo flow cytometry. DiI-labeled treated cells and DiR-labeled untreated cells were injected in the tail vein of 2 BALB/c mice. Cells were counted every 5 min for 45 minutes as described in Material and Methods.
DI-labeled BCWM.1 cells treated with salinosporamide A (10 nM, 4 hours), alone or in combination with bortezomib (5 nM), or DiR-labeled untreated BCWM.1 cells used as control were injected in the tail vein of BALB/c mice, followed by in vivo flow cytometry every 5 minutes for 45 minutes after injection.

[8] = tested on: trypsin-like (T-L) activity of the 20S proteasome; experiment: 20S proteasome trypsin-like activity in treated cells; conditions: 10 nM, 4 hours
[9] = tested on: BM hematopoietic progenitor cells; experiment: Colony-forming cell assay; conditions: salinosporamide A 10 nM, 20 nM; bortezomib 10 nM; day 14
Excerpt: FIG. 5D is a graph showing colony-forming cell assay. […] All experiments have been done in triplicate.
as §1

BCWM.1 cells [10] = experiment: Transwell migration assay towards SDF-1; type: cell-based; conditions: each agent 10 nM, 4 hours; SDF-1 30 nM
Excerpt: Cells were then subjected to migration as previously described in Alsayed Y, Ngo H, Runnels J., et al. Mechanisms of regulation of CXCR4/SDF-1 (CXCL12)-dependent migration and homing in multiple myeloma. Blood.

BCWM.1 cells [11] = experiment: Apo2.7 staining apoptosis, flow cytometry; type: cell-based; conditions: 48 hours, untreated 5%
Procedure: FIG. 1E is a graph showing BCWM. 1 cultured with salinosporamide A for 48 hours at doses that range from 2 to 30 nM and the percentage of cells undergoing apoptosis was studied by Apo2.7 staining.
The molecular mechanisms whereby salinosporamide A induces cytotoxicity in WM cells was examined.

[12] = tested on: PBMCs from 3 healthy volunteers
[13] = tested on: primary CD19+ cells isolated from three patients with WM; experiment: tissue or blood; conditions: Homo sapiens, read-out: IC50, cytotoxicity in primary CD19+ cells (MTT)
Procedure: FIG. 1D is a graph showing freshly isolated bone marrow CD19^+ tumor cells from 3 patients with WM were cultured with salinosporamide A (2.5-40 nM [E]; 2.5-80 nM [F]). Cytotoxicity was assessed by MTT assay.

[14] = tested on: BCWM.1 cells adherent to BMSCs; experiment: [3H]-TdR uptake in co-culture with BMSCs; type: cell-based; conditions: salinosporamide A 2.5-20 nM, bortezomib 10 nM, 48 hours
Procedure: Whether salinosporamide A, alone or in combination with bortezomib, inhibits WM cells growth in the context of the BM milieu was investigated. BCWM.1 cells were cultured with salinosporamide A (2.5-20 nM) and/or bortezomib (10 nM) in the presence or absence of BMSCs, for 48 hours.

BCWM.1 cells [15] = experiment: cells
Procedure: (§2) FIG. 1A is a graph showing thymidine uptake assay and cytotoxicity assessed by MTT. BCWM.1 cells were cultured with salinosporamide A (2.5-40 nM) for 48 hours.
FIG. 2A is a graph showing BCWM.1 cells cultured with salinosporamide A (2.5, 5 and 10 nM) for 48 hours, in the presence or absence of bortezomib (5 and 10 nM). Cytotoxicity was assessed by MTT assay.
All experiments were repeated in triplicate.

WM-WSU, MEC-1, Namalwa [16] = experiment: [3H]-thymidine uptake assay, IgM-secreting cell lines; type: cell-based; conditions: Homo sapiens, MEC1, 48 hours, read-out: IC50, [3H]-thymidine uptake, all cell lines tested
Procedure: FIG. 1B is a graph showing thymidine uptake assay.
WM and IgM-secreting cell lines were cultured for 48 hours in the presence of salinosporamide A (Formula I-16) (2.5-40 nM). […]

NF-κBp65 = NF-κBp65 DNA binding activity (Active Motif assay), TNF-α stimulated; type: cell-based; conditions: each agent 10 nM, 4 hours; TNF-α 10 ng/mL last 20 minutes
Procedure: FIG. 3A is a graph showing BCWM.1 cells cultured with either salinosporamide A (10 nM), bortezomib (10 nM), or the combination for 4 hours, then human TNF-α (10 ng/mL) was added for the last 20 minutes. NF-κBp65 transcription factor-binding to its consensus sequence on the plate-bound oligonucleotide was studied from nuclear extract. Wild type and mutant are wild type and mutated consensus competitor oligonucleotides, respectively. All results represent means (±sd) of triplicate experiments.
The effect of salinosporamide A either alone or in combination with bortezomib on the NF-κBp65 DNA binding activity was investigated, studying nuclear extracts from treated cells using the Active Motif assay. […] Phospho-p65 translocation from the cytoplasmic compartment to the nucleus was inhibited by the combination of bortezomib and salinosporamide A, resulting in a significant increase in p-p65 expression in the cytoplasmic compartment as shown by immunofluorescence (FIG. 3D).

[17] = tested on: Akt knockdown BCWM.1 cell line; experiment: MTT cytotoxicity in Akt knockdown cell line; conditions: 2.5-20 nM, 48 hours
Procedure: BCWM.1 transfected cells or BCWM.1 control cells were treated with salinosporamide A (2.5-20 nM) for 48 hours. Cytotoxicity was assessed by MTT assay.

BCWM.1 cells [18] = experiment: [3H]-thymidine uptake proliferation assay; type: cell-based; conditions: BCWM1; BCWM.1, 48 hours; read-out: IC50, inhibition of proliferation ([3H]-thymidine uptake)
Procedure: as §2
WM and IgM-secreting cell lines were cultured for 48 hours in the presence of salinosporamide A (Formula I-16) (2.5-40 nM).

[19] = tested on: PI3K/Akt signaling pathway in BCWM.1 cells; experiment: Western blotting of PI3K/Akt signaling pathway; conditions: 2.5-20 nM, 6 hours
Excerpt: Whole cell lysate were subjected to Western blotting using anti-p-Akt, -Akt, -p-GSK3α/β, -p-S6R, -p-ERK, and -α-tubulin antibodies.

WM-WSU, MEC-1, Namalwa [20] = experiment: MTT cytotoxicity assay, other IgM-secreting cell lines; type: cell-based; conditions: Homo sapiens, MEC1; 48 hours

C[C@]1(O)[C@@H](CCCl)C(=O)N[C@]1(C(=O)SCC(NC(=O)CCC(N)C(=O)O)C(=O)NCC(=O)O)[C@@H](O)[C@@H]1C=CCCC1 (some centres unmarked) [Compound I-48]
stability in solution (Stability in solution): unstable in solution

CC(C)C[C@H](NC(=O)[C@H](Cc1ccccc1)NC(=O)c1cnccn1)B(O)O [bortezomib, Bortezomib, reference compound]
responses in WM (WM): 40-80% | reduction of the C-L activity [1]: 29% | FN-induced p65 phosphorylation and p50NF-κB expression [2]: inhibited | IL-6-induced proliferation of BCWM.1 cells (BCWM.1 cells [3]): inhibited IL-6-induced proliferation of BCWM.1 cells | caspases-3, 8 and 9 cleavage (BCWM.1 cells [4]; 12 hours): induced-9 and -3 cleavage | reduction of the CT-L activity [5]: 69% | Akt kinase activity (phosphorylation of GSK3α/β fusion protein) (Akt): did not modulate Akt phosphorylation | IL-6-triggered Akt and STAT-3 phosphorylation [6]: inhibited IL-6-triggered Akt and STAT-3 phosphorylation | homing of WM cells to the bone marrow [7]: Neither salinosporamide A nor bortezomib used as single agents significantly inhibited homing | reduction of the T-L activity [8]: 5%

C[C@@]12OC(=O)[C@]1([C@@H](O)[C@@H]1C=CCCC1)NC(=O)[C@@H]2CCCl [salinosporamide A]
growth of BM hematopoietic progenitor cells (colony formation) [9]: did not affect the growth of BM hematopoietic progenitor cells | WM cells migration towards SDF-1 (BCWM.1 cells [10]): slightly inhibited | percentage of apoptotic BCWM.1 cells (BCWM.1 cells [11]; 5 nM): 21.2% | percentage of apoptotic BCWM.1 cells (BCWM.1 cells [11]; 20 nM): 40% | cytotoxic effect on PBMCs [12]: no cytotoxic effect | IC50 [13]: 20 to 30 nM | reduction of the C-L activity [1]: 34.3% | BMSC-triggered increase in proliferation of BCWM.1 cells [14]: inhibited by salinosporamide A in a dose-dependent manner | IC50 (BCWM.1 cells [15]; BCWM1, 48 h, read-out: IC50, decreased survival (MTT)): 18 nM | cytotoxicity, % of BCWM.1 cells (MTT) (BCWM.1 cells [15]; human): 12.4% | IC50 (WM-WSU, MEC-1, Namalwa [16]): 20 to 30 nM | TNF-α induced NF-κB recruitment to the nucleus (NF-κBp65 DNA binding) (NF-κBp65): inhibited by salinosporamide A more than bortezomib | FN-induced p65 phosphorylation and p50NF-κB expression [2]: inhibited | cytotoxic effect in the absence of Akt [17]: abrogated | IL-6-induced proliferation of BCWM.1 cells (BCWM.1 cells [3]): inhibited IL-6-induced proliferation of BCWM.1 cells | Mcl-1 expression (BCWM.1 cells [4]; 2.5-20 nM, 12 hours): induced down-modulation of the anti-apoptotic protein Mcl-1 | XIAP expression (BCWM.1 cells [4]; 2.5-20 nM, 12 hours): down-regulated the expression of XIAP in a dose-dependent manner | caspase-8 and PARP cleavage (BCWM.1 cells [4]; 2.5-20 nM, 12 hours): induced caspase-8 and PARP cleavage in a dose-dependent manner | caspase-3 and -9 (BCWM.1 cells [4]; 2.5-20 nM, data not shown): without affecting caspase-3 and -9 | caspases-3, 8 and 9 cleavage (BCWM.1 cells [4]; 12 hours): induced mild capsase-8 cleavage without affecting caspase-3 and 9 cleavage | reduction of the CT-L activity [5]: 81% | Akt kinase activity (phosphorylation of GSK3α/β fusion protein) (Akt): decreased phosphorylation of GSK3α/β fusion protein | IC50 (BCWM.1 cells [18]): 15 nM | viability of BMSCs (MTT) (BMSCs): not affected | IL-6-triggered Akt and STAT-3 phosphorylation [6]: inhibited IL-6-triggered Akt and STAT-3 phosphorylation | phosphorylation of Akt (ser473), GSK3α/β and ribosomal protein S6 [19]: inhibited phosphorylation of Akt (ser473), and downstream GSK3α/β and ribosomal protein S6 in a dose dependent manner | phosphorylation of ERK1/2 (thr202/tyr204) [19]: no activity on the phosphorylation of the MAP kinase ERK1/2 | IC50 (WM-WSU, MEC-1, Namalwa [20]): 30 to 40 nM | homing of WM cells to the bone marrow [7]: Neither salinosporamide A nor bortezomib used as single agents significantly inhibited homing | reduction of the T-L activity [8]: 38.7%

— patent publication US8394816B2, “Methods of using [3.2.0] heterocyclic compounds and analogs thereof in treating Waldenstrom's Macroglobulinemia” (priority 2007, dated 2013)
